# Measured values taken from patent publication US11098027B2, “Therapeutic heterocyclic compounds” (Gilead Sciences, Inc., priority 2018, dated 2021).
# Molecular target: T1, IDO1 (Homo sapiens, UniProt P14902)
# T1 construct: HeLa cells were treated with a test compound in the presence of IFNγ, which induces IDO1 expression; host or cells: H1-HeLa cells, IDO1 induced with IFNγ
# Assay: Cell-based (HeLa) assay for measurement of IDO1 inhibition (kynurenine levels in supernatant)
# Conditions: H1-HeLa cells, IDO1 induced with IFNγ, 48 hour incubation, kynurenine read by absorbance at 480 nm; geometric mean of a minimum of four determinations
# Protocol: Example B-1. Cell-Based (HeLa) Assay for Measurement of IDO1 Inhibition
# To measure IDO1 inhibition in tissue culture, HeLa cells were treated with a test compound in the presence of IFNγ, which induces IDO1 expression. Following incubation, cell supernatants were assayed for kynurenine levels, an indicator of IDO1 activity.
# The following day, the test compounds were added in DMSO (0.5% final) at various concentrations, and IDO1 was inducibly expressed by the addition of 50 uL/well of 50 ng/mL of INFγ (Peprotech #300-02) in cell plating media. As a positive control, 50 uL of the cell plating media without IFNγ was added to several wells. Following a 48 hour incubation, the plates were spun down at 1,200 RPM for 5 min at 10° C. 65 μL/well of the supernatant was then transferred to new 384-well plates (Thermo #262160) that contained 10 uL/well of 30% TCA (Sigma # TO699), and the plates were sealed and incubated at 60° C. for 30 min. The plates were then centrifuged for 15 min at 2,000 RPM at 10° C. 40 μL/well of the supernatant was transferred to new 384-well plates (Thermo #262160) and was reacted with 40 μL/well of 2% (w/v) p-dimethlyaminobenzaldehyde (Sigma #156417) in glacial acetic acid (Sigma #A6283). The reaction was incubated at room temperature for 10 min and absorbance at 480 nm was read using a PerkinElmer Envision plate reader.
# Data in Table 1 were normalized based on positive (−IFNγ) and negative (+IFNγ) controls and EC50 values were calculated from the fit of the dose—response curves to a four-parameter equation. All EC50 values represent geometric mean values of a minimum of four determinations. These assays generally produced results within 2-fold of the reported mean
# T1 sequence (P14902 whole entry): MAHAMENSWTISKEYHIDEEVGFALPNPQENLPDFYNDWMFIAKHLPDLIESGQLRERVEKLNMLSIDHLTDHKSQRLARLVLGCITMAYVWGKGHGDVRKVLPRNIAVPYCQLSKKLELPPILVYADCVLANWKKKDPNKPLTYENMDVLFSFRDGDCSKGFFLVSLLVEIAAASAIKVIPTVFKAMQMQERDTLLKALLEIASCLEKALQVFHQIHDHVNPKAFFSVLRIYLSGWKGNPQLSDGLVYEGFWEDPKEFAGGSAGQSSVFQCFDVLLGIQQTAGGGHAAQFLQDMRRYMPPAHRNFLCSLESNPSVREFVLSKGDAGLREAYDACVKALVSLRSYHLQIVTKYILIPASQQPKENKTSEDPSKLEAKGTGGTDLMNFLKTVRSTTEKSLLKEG
row,SMILES,EC50
1,"CC1(C)C(=O)N(c2ncccn2)c2cccc(-c3ccc(C(F)(F)F)c(C(=O)Nc4ccc(F)cc4)c3)c21 [Compound 1, 5-(3,3-dimethyl-2-oxo-1-(pyrimidin-2-yl)indolin-4-yl)-N-(4-fluorophenyl)-2-(trifluoromethyl)benzamide]",10 nM
2,"CC1(C)C(=O)N(c2ccccn2)c2cccc(-c3ccc(C(F)(F)F)c(C(=O)Nc4ccc(F)cc4)c3)c21 [Example 2, 5-(3,3-dimethyl-2-oxo-1-(pyridin-2-yl)indolin-4-yl)-N-(4-fluorophenyl)-2-(trifluoromethyl)benzamide]",11 nM
3,"CC1(C)C(=O)N(c2ccncn2)c2cccc(-c3ccc(C(F)(F)F)c(C(=O)Nc4ccc(F)cc4)c3)c21 [Example 3, 5-(3,3-dimethyl-2-oxo-1-(pyrimidin-4-yl)indolin-4-yl)-N-(4-fluorophenyl)-2-(trifluoromethyl)benzamide]",11 nM
4,"CC1(C)C(=O)N(c2cnccn2)c2cccc(-c3ccc(C(F)(F)F)c(C(=O)Nc4ccc(F)cc4)c3)c21 [Example 4, 5-(3,3-dimethyl-2-oxo-1-(pyrazin-2-yl)indolin-4-yl)-N-(4-fluorophenyl)-2-(trifluoromethyl)benzamide]",11 nM
5,"CC1(C)C(=O)N(c2cc[nH]n2)c2cccc(-c3ccc(C(F)(F)F)c(C(=O)Nc4ccc(F)cc4)c3)c21 [Example 5, 5-(3,3-dimethyl-2-oxo-1-(1H-pyrazol-3-yl)indolin-4-yl)-N-(4-fluorophenyl)-2-(trifluoromethyl)benzamide]",13 nM
6,"CC1(C)C(=O)N(c2cccnc2)c2cccc(-c3ccc(C(F)(F)F)c(C(=O)Nc4ccc(F)cc4)c3)c21 [Example 7, 5-(3,3-dimethyl-2-oxo-1-(pyridin-3-yl)indolin-4-yl)-N-(4-fluorophenyl)-2-(trifluoromethyl)benzamide]",19 nM
7,"Cc1ccc(-c2cccc3c2C(C)(C)C(=O)N3c2ncccn2)cc1C(=O)Nc1ccc(F)cc1 [Example 9, 5-(3,3-dimethyl-2-oxo-1-(pyrimidin-2-yl)indolin-4-yl)-N-(4-fluorophenyl)-2-methylbenzamide]",33 nM
8,"CC1(C)C(=O)N(c2c[nH]cn2)c2cccc(-c3ccc(C(F)(F)F)c(C(=O)Nc4ccc(F)cc4)c3)c21 [Example 11, 5-(1-(1H-imidazol-4-yl)-3,3-dimethyl-2-oxoindolin-4-yl)-N-(4-fluorophenyl)-2-(trifluoromethyl)benzamide]",41 nM
9,"Cc1ncc(-c2cccc3c2C(C)(C)C(=O)N3c2ccccn2)cc1C(=O)Nc1ccc(F)cc1 [Example 12, 5-(3,3-dimethyl-2-oxo-1-(pyridin-2-yl)indolin-4-yl)-N-(4-fluorophenyl)-2-methylnicotinamide]",66 nM
10,"Cc1ncc(-c2cccc3c2C(C)(C)C(=O)N3c2cccnc2)cc1C(=O)Nc1ccc(F)cc1 [Example 13, 5-(3,3-dimethyl-2-oxo-1-(pyridin-3-yl)indolin-4-yl)-N-(4-fluorophenyl)-2-methylnicotinamide]",94 nM
11,"CC1(C)C(=O)N(c2ccccn2)c2nccc(-c3ccc(C(F)(F)F)c(C(=O)Nc4ccc(F)cc4)c3)c21 [Example 17, 5-(3,3-dimethyl-2-oxo-1-(pyridin-2-yl)-2,3-dihydro-1H-pyrrolo[2,3-b]pyridin-4-yl)-N-(4-fluorophenyl)-2-(trifluoromethyl)benzamide]",13 nM
12,"CC1(C)C(=O)N(c2cccnc2)c2nccc(-c3ccc(C(F)(F)F)c(C(=O)Nc4ccc(C#N)cn4)c3)c21 [Example 19, N-(5-cyanopyridin-2-yl)-5-(3,3-dimethyl-2-oxo-1-(pyridin-3-yl)-2,3-dihydro-1H-pyrrolo[2,3-b]pyridin-4-yl)-2-(trifluoromethyl)benzamide]",33 nM
13,"CC1(C)C(=O)N(c2ncccn2)c2cccc(-c3ccc(C(F)(F)F)c(C(=O)Nc4cccnc4)c3)c21 [Example 21, 5-(3,3-dimethyl-2-oxo-1-(pyrimidin-2-yl)indolin-4-yl)-N-(pyridin-3-yl)-2-(trifluoromethyl)benzamide]",98 nM
14,"Cc1ccc(-c2cccc3c2[nH]c(=O)n3-c2cccc(F)c2F)cc1C(=O)Nc1ccc(F)cc1 [Example 22, 5-(1-(2,3-difluorophenyl)-2-oxo-2,3-dihydro-1H-benzo[d]imidazol-4-yl)-N-(4-fluorophenyl)-2-methylbenzamide]",62 nM
15,"Cn1cc(N2C(=O)C(C)(C)c3c(-c4ccc(C(F)(F)F)c(C(=O)Nc5ccc(F)cc5)c4)cccc32)cn1 [Example 23, 5-(3,3-dimethyl-1-(1-methyl-1H-pyrazol-4-yl)-2-oxoindolin-4-yl)-N-(4-fluorophenyl)-2-(trifluoromethyl)benzamide]",311 nM
16,"CC1(C)C(=O)N(c2ccccn2)c2nccc(-c3ccc(C(F)(F)F)c(C(=O)Nc4ccc(F)c(F)c4)c3)c21 [Example 27, N-(3,4-difluorophenyl)-5-(3,3-dimethyl-2-oxo-1-(pyridin-2-yl)-2,3-dihydro-1H-pyrrolo[2,3-b]pyridin-4-yl)-2-(trifluoromethyl)benzamide]",63 nM
17,"CC1(C)C(=O)N(c2ccccn2)c2nccc(-c3ccc(C(F)(F)F)c(C(=O)Nc4ccc(F)cn4)c3)c21 [Example 28, 5-(3,3-dimethyl-2-oxo-1-(pyridin-2-yl)-2,3-dihydro-1H-pyrrolo[2,3-b]pyridin-4-yl)-N-(5-fluoropyridin-2-yl)-2-(trifluoromethyl)benzamide]",36 nM
18,"O=C(Nc1ccc(F)cc1)c1cc(-c2cccc3c2[nH]c(=O)n3-c2ncccn2)ccc1C(F)(F)F [Example 29, N-(4-fluorophenyl)-5-(2-oxo-1-(pyrimidin-2-yl)-2,3-dihydro-1H-benzo[d]imidazol-4-yl)-2-(trifluoromethyl)benzamide]",179 nM

# The remaining compounds from weak to strong by EC50, led by results:
row,EC50,SMILES
1,810 nM,"CC1(C)C(=O)N(Cc2ncccn2)c2cccc(-c3ccc(C(F)(F)F)c(C(=O)Nc4ccc(F)cc4)c3)c21 [Example 16, 5-(3,3-dimethyl-2-oxo-1-(pyrimidin-2-ylmethyl)indolin-4-yl)-N-(4-fluorophenyl)-2-(trifluoromethyl)benzamide]"
2,522 nM,"Cc1ncc(-c2cccc3c2C(C)(C)C(=O)N3c2cnccn2)cc1C(=O)Nc1ccc(F)cc1 [Example 15, 5-(3,3-dimethyl-2-oxo-1-(pyrazin-2-yl)indolin-4-yl)-N-(4-fluorophenyl)-2-methylnicotinamide]"
3,105 nM,"Cc1ncc(-c2cccc3c2C(C)(C)C(=O)N3c2ncccn2)cc1C(=O)Nc1ccc(F)cc1 [Example 14, 5-(3,3-dimethyl-2-oxo-1-(pyrimidin-2-yl)indolin-4-yl)-N-(4-fluorophenyl)-2-methylnicotinamide]"
4,48 nM,"CC1(C)C(=O)N(c2ncccn2)c2cccc(-c3ccc(OC(F)(F)F)c(C(=O)Nc4ccc(F)cc4)c3)c21 [Example 24, 5-(3,3-dimethyl-2-oxo-1-(pyrimidin-2-yl)indolin-4-yl)-N-(4-fluorophenyl)-2-(trifluoromethoxy)benzamide]"
5,44 nM,"CC1(C)C(=O)N(c2ncccn2)c2cccc(-c3ccc(C(F)(F)F)c(C(=O)Nc4ccncc4)c3)c21 [Example 26, 5-(3,3-dimethyl-2-oxo-1-(pyrimidin-2-yl)indolin-4-yl)-N-(pyridin-4-yl)-2-(trifluoromethyl)benzamide]"
6,39 nM,"CC1(C)C(=O)N(c2ncccn2)c2cccc(-c3cc(C(=O)Nc4ccc(F)cc4)c(C(F)(F)F)cn3)c21 [Example 25, 2-(3,3-dimethyl-2-oxo-1-(pyrimidin-2-yl)indolin-4-yl)-N-(4-fluorophenyl)-5-(trifluoromethyl)isonicotinamide]"
7,36 nM,"CC1(C)C(=O)N(c2cncc(F)c2)c2cccc(-c3cnc(C(F)(F)F)c(C(=O)Nc4ccc(F)cc4)c3)c21 [Example 20, N-(4-fluorophenyl)-5-(1-(5-fluoropyridin-3-yl)-3,3-dimethyl-2-oxoindolin-4-yl)-2-(trifluoromethyl)nicotinamide]"
8,34 nM,"Cc1ccc(-c2cccc3c2C(C)(C)C(=O)N3c2ccccn2)cc1C(=O)Nc1ccc(F)cc1 [Example 10, 5-(3,3-dimethyl-2-oxo-1-(pyridin-2-yl)indolin-4-yl)-N-(4-fluorophenyl)-2-methylbenzamide]"
9,24 nM,"CC1(C)C(=O)N(c2ccncc2)c2cccc(-c3ccc(C(F)(F)F)c(C(=O)Nc4ccc(F)cc4)c3)c21 [Example 8, 5-(3,3-dimethyl-2-oxo-1-(pyridin-4-yl)indolin-4-yl)-N-(4-fluorophenyl)-2-(trifluoromethyl)benzamide]"
10,24 nM,"CC1(C)C(=O)N(c2ncccn2)c2cccc(-c3ccc(C(F)(F)F)c(C(=O)Nc4ccc(F)c(F)c4)c3)c21 [Example 30, N-(3,4-difluorophenyl)-5-(3,3-dimethyl-2-oxo-1-(pyrimidin-2-yl)indolin-4-yl)-2-(trifluoromethyl)benzamide]"
11,16 nM,"CC1(C)C(=O)N(c2cn[nH]c2)c2cccc(-c3ccc(C(F)(F)F)c(C(=O)Nc4ccc(F)cc4)c3)c21 [Example 18, 5-(3,3-dimethyl-2-oxo-1-(1H-pyrazol-4-yl)indolin-4-yl)-N-(4-fluorophenyl)-2-(trifluoromethyl)benzamide]"
